Data on 8 compounds can be found in US12195482B1 (Arcus Biosciences, Inc., priority 2022, dated 2025).

One assay concerns the target T1, recombinant human MER (Homo sapiens, UniProt Q12866).
T1 construct: purchased Invitrogen
T1 sequence (Q12866 21-999): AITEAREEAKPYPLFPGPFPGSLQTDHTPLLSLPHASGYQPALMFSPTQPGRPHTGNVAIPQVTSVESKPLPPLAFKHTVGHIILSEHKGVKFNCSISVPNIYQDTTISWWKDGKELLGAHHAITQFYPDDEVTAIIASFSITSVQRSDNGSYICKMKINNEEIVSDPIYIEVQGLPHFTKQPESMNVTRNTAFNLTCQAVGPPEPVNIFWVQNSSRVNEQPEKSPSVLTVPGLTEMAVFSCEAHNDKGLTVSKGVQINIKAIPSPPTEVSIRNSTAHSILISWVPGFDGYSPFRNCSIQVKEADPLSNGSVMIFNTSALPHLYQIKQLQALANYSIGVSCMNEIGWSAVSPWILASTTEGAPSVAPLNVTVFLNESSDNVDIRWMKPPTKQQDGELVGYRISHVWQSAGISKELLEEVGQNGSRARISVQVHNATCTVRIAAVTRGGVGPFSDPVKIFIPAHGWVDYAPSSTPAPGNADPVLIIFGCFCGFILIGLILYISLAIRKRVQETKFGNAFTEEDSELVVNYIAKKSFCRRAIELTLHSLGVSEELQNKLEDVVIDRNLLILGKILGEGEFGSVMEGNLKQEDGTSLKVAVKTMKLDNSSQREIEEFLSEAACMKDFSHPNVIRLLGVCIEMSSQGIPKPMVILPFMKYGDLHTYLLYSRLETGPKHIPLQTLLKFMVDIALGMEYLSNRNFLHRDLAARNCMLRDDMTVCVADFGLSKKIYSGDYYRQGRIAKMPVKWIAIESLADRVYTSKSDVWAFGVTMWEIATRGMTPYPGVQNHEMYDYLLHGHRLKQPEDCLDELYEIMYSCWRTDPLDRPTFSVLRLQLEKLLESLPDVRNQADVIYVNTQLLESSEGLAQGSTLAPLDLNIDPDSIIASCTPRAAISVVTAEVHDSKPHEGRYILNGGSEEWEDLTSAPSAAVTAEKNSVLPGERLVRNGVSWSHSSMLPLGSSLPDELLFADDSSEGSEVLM
As to the kind of experiment: Biochemical potency, HTRF KinEASE-TK kinase assay. Particulars: 1 nM MER, 700 μM ATP. A digest of the protocol:
(§1)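 Compounds preincubated 1 h at RT with enzyme in 50 mM HEPES pH 7.4, 10 mM MgCl2, 0.01% BSA, 1 mM DTT; reactions then ran 2 h at RT with 5 nM AXL or 1 nM TYRO3/MER, 800 nM TK substrate-biotin, 700 μM ATP, 1% DMSO. HTRF 665/620 ratio read; percent activity calculated.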

The next assay deals with T2, recombinant human TYRO3 (Homo sapiens, UniProt Q06418).
T2 construct: purchased Invitrogen
T2 sequence (Q06418 41-890): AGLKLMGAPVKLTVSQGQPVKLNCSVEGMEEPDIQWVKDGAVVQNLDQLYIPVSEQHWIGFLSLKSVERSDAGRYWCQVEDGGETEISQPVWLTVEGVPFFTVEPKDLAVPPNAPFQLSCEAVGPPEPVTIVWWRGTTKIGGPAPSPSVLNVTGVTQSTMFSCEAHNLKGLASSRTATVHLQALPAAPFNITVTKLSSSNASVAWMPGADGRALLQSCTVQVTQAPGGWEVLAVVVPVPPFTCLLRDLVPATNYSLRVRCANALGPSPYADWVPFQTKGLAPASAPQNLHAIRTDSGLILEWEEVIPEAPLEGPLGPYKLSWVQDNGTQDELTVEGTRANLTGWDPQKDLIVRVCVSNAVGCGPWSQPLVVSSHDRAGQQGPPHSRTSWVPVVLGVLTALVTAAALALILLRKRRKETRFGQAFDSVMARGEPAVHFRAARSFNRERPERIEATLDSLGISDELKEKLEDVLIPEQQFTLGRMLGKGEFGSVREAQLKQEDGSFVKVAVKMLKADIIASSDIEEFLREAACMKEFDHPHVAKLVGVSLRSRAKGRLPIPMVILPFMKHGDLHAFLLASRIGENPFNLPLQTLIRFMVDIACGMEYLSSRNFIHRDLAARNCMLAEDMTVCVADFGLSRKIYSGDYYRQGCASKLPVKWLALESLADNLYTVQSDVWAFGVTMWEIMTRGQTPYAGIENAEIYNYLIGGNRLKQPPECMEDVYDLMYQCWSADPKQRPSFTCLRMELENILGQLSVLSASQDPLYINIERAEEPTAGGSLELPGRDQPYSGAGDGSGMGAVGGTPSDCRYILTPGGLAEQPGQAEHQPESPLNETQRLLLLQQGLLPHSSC
As to the kind of experiment: Biochemical potency, HTRF KinEASE-TK kinase assay. The settings on record: 1 nM TYRO3, 700 μM ATP. A digest of the protocol:
as §1

Consider `CS(=O)(=O)c1cccnc1-c1ccc(-c2c[nH]c3ncc(-c4ccc5c(c4)CC[C@@H](N4C6COCC4C6)CC5)cc23)cc1` [Example 102, 6-[(7S)-2-{3-[4-(3-Methanesulfonylpyridin-2-yl)phenyl]-1H-pyrrolo[2,3-b]pyridin-5-yl}-6,7,8,9-tetrahydro-5H-benzo[7]annulen-7-yl]-3-oxa-6-azabicyclo[3.1.1]heptane], for which the IC50 at recombinant human MER was 100 to 1000 nM; on recombinant human TYRO3, < 100 nM.
Take `CCc1cccnc1-c1ccc(-c2n[nH]c3ncc(-c4ccc5c(c4)CC[C@@H](N4C6COCC4C6)CC5)cc23)cc1` [Example 182, 6-[(7S)-2-{3-[4-(3-Ethylpyridin-2-yl)phenyl]-1H-pyrazolo[3,4-b]pyridin-5-yl}-6,7,8,9-tetrahydro-5H-benzo[7]annulen-7-yl]-3-oxa-6-azabicyclo[3.1.1]heptane]: the results for the IC50 on recombinant human MER and at recombinant human TYRO3 were 100 to 1000 nM and < 100 nM, respectively.
`CCOc1cccnc1-c1ccc(-c2n[nH]c3ncc(-c4ccc5c(c4)CC[C@@H](N4C6COCC4C6)CC5)cc23)cc1` [Example 181, 6-[(7S)-2-{3-[4-(3-Ethoxypyridin-2-yl)phenyl]-1H-pyrazolo[3,4-b]pyridin-5-yl}-6,7,8,9-tetrahydro-5H-benzo[7]annulen-7-yl]-3-oxa-6-azabicyclo[3.1.1]heptane]: the IC50 at recombinant human MER and on recombinant human TYRO3 was 100 to 1000 nM each time.
As for `CN(C(=O)C1CC1)c1cccnc1-c1ccc(-c2n[nH]c3ncc(-c4ccc5c(c4)CC[C@@H](N4C6COCC4C6)CC5)cc23)cc1` [Example 128, N-Methyl-N-[2-(4-{5-[(7S)-7-{3-oxa-6-azabicyclo[3.1.1]heptan-6-yl}-6,7,8,9-tetrahydro-5H-benzo[7]annulen-2-yl]-1H-pyrazolo[3,4-b]pyridin-3-yl}phenyl)pyridin-3-yl]cyclopropanecarboxamide], the IC50 on recombinant human MER is 100 to 1000 nM; at recombinant human TYRO3, < 100 nM.
As to `O=C1CCCN1c1cccnc1-c1ccc(-c2c[nH]c3ncc(-c4ccc5c(c4)CC[C@@H](N4C6COCC4C6)CC5)cc23)cc1` [Example 7, 1-[2-(4-{5-[(7S)-7-{3-Oxa-6-azabicyclo[3.1.1]heptan-6-yl}-6,7,8,9-tetrahydro-5H-benzo[7]annulen-2-yl]-1H-pyrrolo[2,3-b]pyridin-3-yl}phenyl)pyridin-3-yl]pyrrolidin-2-one], the IC50 at recombinant human MER is 100 to 1000 nM; at recombinant human TYRO3 it was < 100 nM.
The corresponding values for `CC(C)(O)c1ccccc1-c1ccc(-c2c[nH]c3ncc(-c4ccc5c(c4)CC[C@@H](N4C6COCC4C6)CC5)cc23)cn1` [Example 114, 2-[2-(5-{5-[(7S)-7-{3-Oxa-6-azabicyclo[3.1.1]heptan-6-yl}-6,7,8,9-tetrahydro-5H-benzo[7]annulen-2-yl]-1H-pyrrolo[2,3-b]pyridin-3-yl}pyridin-2-yl)phenyl]propan-2-ol] are 100 to 1000 nM and 100 to 1000 nM.
With `C[C@@H]1CCCN1[C@@]1(C)CCc2ccc(-c3cnc4[nH]cc(-c5ccc(-c6ccccn6)cc5)c4c3)cc2CC1` [Example 156, 2-(4-{5-[(7S)-7-Methyl-7-[(2R)-2-methylpyrrolidin-1-yl]-6,7,8,9-tetrahydro-5H-benzo[7]annulen-2-yl]-1H-pyrrolo[2,3-b]pyridin-3-yl}phenyl)pyridine], the IC50 at recombinant human MER and on recombinant human TYRO3 was 100 to 1000 nM each time.
Turning to `O=C(c1cccnc1-c1ccc(-c2n[nH]c3ncc(-c4ccc5c(c4)CC[C@@H](N4C6COCC4C6)CC5)cc23)cc1)N1CCCC1` [Example 4, 6-[(7S)-2-(3-{4-[3-(Pyrrolidine-1-carbonyl)pyridin-2-yl]phenyl}-1H-pyrazolo[3,4-b]pyridin-5-yl)-6,7,8,9-tetrahydro-5H-benzo[7]annulen-7-yl]-3-oxa-6-azabicyclo[3.1.1]heptane], the half-maximal inhibitory concentration (IC50) on recombinant human MER and on recombinant human TYRO3 was 100 to 1000 nM throughout.
